Results as given in patent US11802305B2, “Detection processes using sites of chromosome interaction” (Oxford Biodynamics PLC, priority 2015, dated 2023).

Assays:
MYD88 locus = conditions: 72 hr treatment with TCP (1 uM), AML cell lines THP-1 and MV4-11, relative to untreated cells
Method: Two AML (acute myeloid leukemia) cell lines THP-1 and MV4-11 were tested with the above compound. […] The positions across the gene have been created and selected based on restriction sites and other features of detection and primer efficiency and were then analysed for interactions. […] Below are the PCR EpiSwitch™ marker results for the MyD88 locus for cell lines THP-1 and MV4-11. FACS analysis was used to sort for the expression of CD11b± cells, as an indicator of differentiation.
However, epigenetic changes observed for chromosome signatures are clean to follow a binary format of 0 or 1.

[1] = cited from earlier work

SMILES	fold change at MYD88 locus (GEX and EpiSwitch) (MYD88 locus)	effect on lifespan of ALS patients [1]
N[C@@H]1C[C@H]1c1ccccc1 (racemic) [TCP, tranylcypromine]	1.5 fold	–
Nc1nc2ccc(OC(F)(F)F)cc2s1 [riluzole]	–	modest increase in lifespan
